Laboratory results taken from patent US10329268B2, “Processes for preparing medicaments for the treatment of cardiovascular diseases and intermediates for use therein” (Bial-Portela & CA., S.A., priority 2013, dated 2019).
Blank lines part the entries; values can stand above or below the compound they belong to.

Key:
[1] = Aqueous solubility at 37° C. in solutions of pH 1.2 to 9.0; type: physicochemical
Method: The aqueous solubility of (R)-5-(2-(benzylamino)ethyl)-1-(6,8-difluorochroman-3-yl)-1H-imidazole-2(3H)-thione was determined in triplicate at 37° C. Aqueous solutions of HCl (pH 1.2, 2.0, 3.0), potassium chloride (pH 1.2, 2.0), acid phthalate (pH 3.0), acetate (pH 4.5, 5.5), phosphate (pH 7.4) and boric acid (pH 9.0) were tested.

[2] = Solubility in organic solvents according to Eur. Ph. Chapter 5.11; type: physicochemical
Method: The solubility of non-micronized and micronized (R)-5-(2-(benzylamino)ethyl)-1-(6,8-difluorochroman-3-yl)-1H-imidazole-2(3H)-thione in several organic solvents was determined.
Solubility Solubility was evaluated according to Eur. Ph. Chapter 5.11 at room temperature.
The following descriptions are used to describe the degree of solubility: […]

[3] = target: T1, dopamine-β-hydroxylase (Homo sapiens, UniProt P09172); settings: background statement, WO2004/033447 / WO2008/136695; cited from earlier work
T1 sequence (P09172 1-617): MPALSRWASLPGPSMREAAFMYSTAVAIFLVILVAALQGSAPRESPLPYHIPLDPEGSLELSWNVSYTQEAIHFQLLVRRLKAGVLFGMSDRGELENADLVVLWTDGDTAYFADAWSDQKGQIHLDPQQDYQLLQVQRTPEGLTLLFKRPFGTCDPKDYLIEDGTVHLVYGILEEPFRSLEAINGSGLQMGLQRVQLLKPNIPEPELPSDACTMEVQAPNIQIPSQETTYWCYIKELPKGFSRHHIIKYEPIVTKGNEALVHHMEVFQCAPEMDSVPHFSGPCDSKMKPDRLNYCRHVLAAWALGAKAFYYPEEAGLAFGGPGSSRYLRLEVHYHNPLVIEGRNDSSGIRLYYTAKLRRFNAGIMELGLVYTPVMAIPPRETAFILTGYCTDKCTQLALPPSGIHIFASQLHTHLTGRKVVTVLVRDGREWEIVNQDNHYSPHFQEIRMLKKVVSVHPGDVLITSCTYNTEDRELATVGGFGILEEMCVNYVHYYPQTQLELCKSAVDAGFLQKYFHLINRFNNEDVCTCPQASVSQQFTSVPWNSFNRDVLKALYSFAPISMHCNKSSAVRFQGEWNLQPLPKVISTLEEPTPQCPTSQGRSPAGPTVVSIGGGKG

[4] = background statement; cited from earlier work

Medium of maximum aqueous solubility [1]: HCl 0.01 (pH 2.0)
Aqueous solubility after micronization relative to non-micronized ([1]; HCl 0.01 (pH 2.0)): lower
Aqueous solubility as a function of pH ([1]; pH 1.2 to 9.0, both non-micronized and micronized): decreases with the increase of pH
Solubility description ([2]; micronized particles, 2-propanol, room temperature): Insoluble
Solubility description ([2]; micronized particles, Cyclohexane, room temperature): Insoluble
Solubility description ([2]; micronized particles, Dimethylformamide, room temperature): Sparingly soluble (from 30 to 100 parts)
Solubility description ([2]; micronized particles, N,N-methylpirrolidone, room temperature): Sparingly soluble (from 30 to 100 parts)
Solubility description ([2]; micronized particles, Tetrahydrofuran, room temperature): Sparingly soluble (from 30 to 100 parts)
Solubility description ([2]; non-micronized particles, 2-propanol, room temperature): Insoluble
Solubility description ([2]; non-micronized particles, Cyclohexane, room temperature): Insoluble
Solubility description ([2]; non-micronized particles, DMSO, room temperature): Sparingly soluble (from 30 to 100 parts)
Solubility description ([2]; non-micronized particles, Dimethylformamide, room temperature): Sparingly soluble (from 30 to 100 parts)
Solubility description ([2]; non-micronized particles, Hexafluoroisopropanol, room temperature): Sparingly soluble (from 30 to 100 parts)
Solubility description ([2]; non-micronized particles, Iso-octane (2,2,4-trimethylpentane), room temperature): Insoluble
Solubility description ([2]; non-micronized particles, Methanol or acetonitrile acidified with 0.1% formic acid or TFA, room temperature): Sparingly soluble (from 30 to 100 parts)
Solubility description ([2]; non-micronized particles, N,N-methylpirrolidone, room temperature): Sparingly soluble (from 30 to 100 parts)
Solubility description ([2]; non-micronized particles, Tetrahydrofuran, room temperature): Sparingly soluble (from 30 to 100 parts)
Change in the solubility profile, before versus after micronization ([2]; organic solvents, room temperature): no overall significant changes
SMILES: Fc1cc(F)c2c(c1)C[C@@H](n1c(CCNCc3ccccc3)c[nH]c1=S)CO2 [(R)-5-(2-(benzylamino)ethyl)-1-(6,8-difluorochroman-3-yl)-1H-imidazole-2(3H)-thione]
Solubility in polar organic aprotic solvents ([2]; all of the polar organic aprotic solvents tested): either sparingly soluble, slightly soluble or very slightly soluble
Solubility description ([2]; micronized particles, 1,4-Dioxane, room temperature): Very slightly soluble (from 1000 to 10,000 parts)
Solubility description ([2]; micronized particles, Absolute ethanol, room temperature): Very slightly soluble (from 1000 to 10,000 parts)
Solubility description ([2]; micronized particles, Acetone, room temperature): Slightly soluble (from 100 to 1000 parts)
Solubility description ([2]; micronized particles, Acetonitrile, room temperature): Very slightly soluble (from 1000 to 10,000 parts)
Solubility description ([2]; micronized particles, Chloroform, room temperature): Slightly soluble (from 100 to 1000 parts)
Solubility description ([2]; micronized particles, DMSO, room temperature): Slightly soluble (from 100 to 1000 parts)
Solubility description ([2]; micronized particles, Dichloromethane, room temperature): Very slightly soluble (from 1000 to 10,000 parts)
Solubility description ([2]; micronized particles, Ethyl acetate, room temperature): Very slightly soluble (from 1000 to 10,000 parts)
Solubility description ([2]; micronized particles, Iso-octane (2,2,4-trimethylpentane), room temperature): Practically insoluble (greater than or equal to 10,000 parts)
Solubility description ([2]; micronized particles, Methanol or acetonitrile acidified with 0.1% formic acid or TFA, room temperature): Slightly soluble (from 100 to 1000 parts)
Solubility description ([2]; micronized particles, Methanol, room temperature): Very slightly soluble (from 1000 to 10,000 parts)
Solubility description ([2]; micronized particles, Methyl ethyl ketone, room temperature): Slightly soluble (from 100 to 1000 parts)
Solubility in polar organic solvents ([2]; most of the polar organic solvents tested): mostly either sparingly soluble, slightly soluble or very slightly soluble
Solubility description ([2]; non-micronized particles, 1,4-Dioxane, room temperature): Slightly soluble (from 100 to 1000 parts)
Solubility description ([2]; non-micronized particles, Absolute ethanol, room temperature): Practically insoluble (greater than or equal to 10,000 parts)
Solubility description ([2]; non-micronized particles, Acetone, room temperature): Slightly soluble (from 100 to 1000 parts)
Solubility description ([2]; non-micronized particles, Acetonitrile, room temperature): Very slightly soluble (from 1000 to 10,000 parts)
Solubility description ([2]; non-micronized particles, Chloroform, room temperature): Very slightly soluble (from 1000 to 10,000 parts)
Solubility description ([2]; non-micronized particles, Dichloromethane, room temperature): Slightly soluble (from 100 to 1000 parts)
Solubility description ([2]; non-micronized particles, Ethyl acetate, room temperature): Very slightly soluble (from 1000 to 10,000 parts)
Solubility description ([2]; non-micronized particles, Isopropyl acetate, room temperature): Very slightly soluble (from 1000 to 10,000 parts)
Solubility description ([2]; non-micronized particles, Methanol, room temperature): Very slightly soluble (from 1000 to 10,000 parts)
Solubility description ([2]; non-micronized particles, Methyl ethyl ketone, room temperature): Slightly soluble (from 100 to 1000 parts)
Solubility description ([2]; non-micronized particles, Toluene, room temperature): Very slightly soluble (from 1000 to 10,000 parts)
Solubility description ([2]; non-micronized particles, Trifluoroethanol, room temperature): Slightly soluble (from 100 to 1000 parts)

SMILES: Cl.NCCc1c[nH]c(=S)n1[C@H]1COc2c(F)cc(F)cc2C1 [Compound 1, (R)-5-(2-Aminoethyl)-1-(6,8-difluorochroman-3-yl)-1,3-dihydroimidazole-2-thione hydrochloride]
Inhibition of dopamine-β-hydroxylase (DβH) [3]: potent
Toxicity [4]: non-toxic
